Measured values as given in patent US12570613B2, “Imidazoquinoline or benzoindazolone compound and intermediate for preparing same” (LMITO THERAPEUTICS INC., priority 2020, dated 2026).

Biological target: NQO1 protein (Homo sapiens, UniProt P15559)
Test: In vitro NQO1 enzyme activity assay (cytochrome C reduction, absorbance at 550 nm)
Assay type: biochemical
Conditions: NQO1 2 ng
Description: In order to evaluate the activity of the synthesized compound in NQO1, the experiments were performed as follows:
The synthesized compound was dissolved in DMSO to make a 10 mM stock solution, which was further diluted with DMSO to 250 μM so as to prepare a working solution. For experimental groups, the working solution of the compound was added to an enzyme reaction solution in which 50 μL of 1.54 mM Cytochrome C solution was added to 900 μL of 50 mM Tris-HCl (pH7.5) containing 0.14% BSA. For negative control groups, DMSO not containing the compound of the invention was added to the enzyme reaction solution as above. For each experimental and control group, 20 μL of 100 ng/mL NQO1 protein was added, and then 10 μL of 20 mM NADH was added to bring up the total volume to 1 mL. The change of absorbance was measured at 550 nm for 10 minutes using 1 mL cuvette. The kinetics of reaction was measured by the increase of absorbance as the cytochrome C was reduced at 550 nm over 10 minutes. The activity of NQO1 was measured by the amount of cytochrome C that is being reduced (nmol cytochrome C that was reduced/min/ug NQO1 protein). • Absorption coefficient of Cytochrome C: 21.1 (μmol/mL)^−1cm^−1 • BSA: Bovine Serum Albumin • […]: Tris(hydroxymethyl)aminomethane hydrochloride (buffer solution) • Equipment=Cary 100 UV-Vis Spectrophotometer • The results are shown in Tables 1 to 8.

Chain of NQO1 protein (P15559 whole entry, species assumed): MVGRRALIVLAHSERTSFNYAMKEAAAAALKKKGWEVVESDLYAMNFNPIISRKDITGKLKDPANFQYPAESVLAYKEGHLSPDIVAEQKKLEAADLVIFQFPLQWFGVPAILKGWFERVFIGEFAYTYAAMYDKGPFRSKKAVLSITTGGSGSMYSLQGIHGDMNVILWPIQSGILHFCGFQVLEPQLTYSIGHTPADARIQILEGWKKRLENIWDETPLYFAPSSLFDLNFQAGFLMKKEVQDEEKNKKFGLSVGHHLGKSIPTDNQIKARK

Cc1c2c(nn1C(C)C)-c1ccccc1C(=O)C2=O [Compound 21, 2-Isopropyl-3-methyl-2H-benzo[g]indazol-4,5-dione]
NQO1 activity assay Cytochrome C reduced/min/μg NQO1 protein (10 nM Compound (Table 1)): 925 nmol cytochrome C that was reduced/min/ug NQO1 protein

Cc1c2c(nn1S(=O)(=O)c1ccc(F)c(F)c1)-c1ccccc1C(=O)C2=O [Compound 58, 2-(3,4-Difluorophenylsulfonyl)-3-methyl-2H-benzo[g]indazol-4,5-dione]
NQO1 activity assay Cytochrome C reduced/min/μg NQO1 protein (50 nM Compound (Table 8)): 1913 nmol cytochrome C that was reduced/min/ug NQO1 protein

Cc1nn(-c2ccncc2)c2c1C(=O)C(=O)c1ccccc1-2 [Compound 41, 3-Methyl-1-(pyridin-4-yl)-1H-benzo[g]indazol-4,5-dione]
NQO1 activity assay Cytochrome C reduced/min/μg NQO1 protein (50 nM Compound (Table 3)): 1617 nmol cytochrome C that was reduced/min/ug NQO1 protein

Cc1c2c(nn1S(=O)(=O)c1cccc3cccnc13)-c1ccccc1C(=O)C2=O [Compound 60, 3-Methyl-2-(quinolin-8-ylsulfonyl)-2H-benzo[g]indazol-4,5-dione]
NQO1 activity assay Cytochrome C reduced/min/μg NQO1 protein (50 nM Compound (Table 8)): 2692 nmol cytochrome C that was reduced/min/ug NQO1 protein

O=C1C(=O)c2c(Cn3ccnc3)nn(-c3ccccc3)c2-c2ccccc21 [Compound 24, 3-((1H-Imidazol-1-yl)methyl)-1-phenyl-1H-benzo[g]indazol-4,5-dione]
NQO1 activity assay Cytochrome C reduced/min/μg NQO1 protein (10 nM Compound (Table 1)): 596 nmol cytochrome C that was reduced/min/ug NQO1 protein

Cc1c2c(nn1S(=O)(=O)c1nccn1C)-c1ccccc1C(=O)C2=O [Compound 61, 3-Methyl-2-(1-methyl-1H-imidazol-2-ylsulfonyl)-2H-benzo[g]indazol-4,5-dione]
NQO1 activity assay Cytochrome C reduced/min/μg NQO1 protein (50 nM Compound (Table 8)): 2289 nmol cytochrome C that was reduced/min/ug NQO1 protein

O=C1C(=O)c2ncc(-c3ccccc3)n2-c2ccccc21 [Compound 1, 1-Phenylimidazo[1,2-a]quinolin-4,5-dione]
NQO1 activity assay Cytochrome C reduced/min/μg NQO1 protein (10 nM Compound (Table 1)): 658 nmol cytochrome C that was reduced/min/ug NQO1 protein

Cc1nn(CCc2ccccc2)c2c1C(=O)C(=O)c1ccccc1-2 [Compound 64, 3-Methyl-1-phenethyl-1H-benzo[g]indazol-4,5-dione]
NQO1 activity assay Cytochrome C reduced/min/μg NQO1 protein (50 nM Compound (Table 2)): 2081 nmol cytochrome C that was reduced/min/ug NQO1 protein

Cc1c2c(nn1S(=O)(=O)C1CCCC1)-c1ccccc1C(=O)C2=O [Compound 54, 2-(Cyclopentylsulfonyl)-3-methyl-2H-benzo[g]indazol-4,5-dione]
NQO1 activity assay Cytochrome C reduced/min/μg NQO1 protein (50 nM Compound (Table 7)): 1295 nmol cytochrome C that was reduced/min/ug NQO1 protein

CC(C)c1nn(-c2ccccc2)c2c1C(=O)C(=O)c1ccccc1-2 [Compound 10, 3-Isopropyl-1-phenyl-1H-benzo[g]indazol-4,5-dione]
NQO1 activity assay Cytochrome C reduced/min/μg NQO1 protein (10 nM Compound (Table 1)): 138 nmol cytochrome C that was reduced/min/ug NQO1 protein

Cc1nn(C(C)C)c2c1C(=O)C(=O)c1ccccc1-2 [Compound 20, 1-Isopropyl-3-methyl-1H-benzo[g]indazol-4,5-dione]
NQO1 activity assay Cytochrome C reduced/min/μg NQO1 protein (10 nM Compound (Table 1)): 918 nmol cytochrome C that was reduced/min/ug NQO1 protein

Cc1c2c(nn1S(=O)(=O)c1ccc(C#N)cc1)-c1ccccc1C(=O)C2=O [Compound 55, 4-(3-Methyl-4,5-dioxo-4,5-dihydro-2H-benzo[g]indazol-2-ylsulfonyl)benzonitrile]
NQO1 activity assay Cytochrome C reduced/min/μg NQO1 protein (50 nM Compound (Table 7)): 1892 nmol cytochrome C that was reduced/min/ug NQO1 protein

Cc1nn(CCc2ccc(F)cc2)c2c1C(=O)C(=O)c1ccccc1-2 [Compound 65, 1-(4-Fluorophenethyl)-3-methyl-1H-benzo[g]indazol-4,5-dione]
NQO1 activity assay Cytochrome C reduced/min/μg NQO1 protein (50 nM Compound (Table 4)): 3714 nmol cytochrome C that was reduced/min/ug NQO1 protein

Cc1nn(-c2cccc3ccccc23)c2c1C(=O)C(=O)c1ccccc1-2 [Compound 38, 3-Methyl-1-(naphthalen-1-yl)-1H-benzo[g]indazol-4,5-dione]
NQO1 activity assay Cytochrome C reduced/min/μg NQO1 protein (50 nM Compound (Table 4)): 2696 nmol cytochrome C that was reduced/min/ug NQO1 protein

O=C1C(=O)c2ncc(-c3ccc(F)cc3)n2-c2ccccc21 [Compound 2, 1-(4-Fluorophenyl)imidazo[1,2-a]quinolin-4,5-dione]
NQO1 activity assay Cytochrome C reduced/min/μg NQO1 protein (10 nM Compound (Table 1)): 455 nmol cytochrome C that was reduced/min/ug NQO1 protein

Cc1c2c(nn1CCc1ccc(F)cc1)-c1ccccc1C(=O)C2=O [Compound 66, 2-(4-Fluorophenethyl)-3-methyl-2H-benzo[g]indazol-4,5-dione]
NQO1 activity assay Cytochrome C reduced/min/μg NQO1 protein (50 nM Compound (Table 4)): 3001 nmol cytochrome C that was reduced/min/ug NQO1 protein
